The source made the active and inactive calls. No cut-off for these calls is given here.
How the values were obtained:
[1] = target: T1, Disintegrin and metalloproteinase domain-containing protein 8 (Homo sapiens) (UniProt P78325); assay: Inhibition of ADAM8 in human MDA-MB-231 cells assessed as inhibition of ERK1/2 phosphorylation at Thr202/Tyr204 residues at 10 uM incubated for 48 hrs by western blot analysis; format: cell-based
T1 sequence (whole entry): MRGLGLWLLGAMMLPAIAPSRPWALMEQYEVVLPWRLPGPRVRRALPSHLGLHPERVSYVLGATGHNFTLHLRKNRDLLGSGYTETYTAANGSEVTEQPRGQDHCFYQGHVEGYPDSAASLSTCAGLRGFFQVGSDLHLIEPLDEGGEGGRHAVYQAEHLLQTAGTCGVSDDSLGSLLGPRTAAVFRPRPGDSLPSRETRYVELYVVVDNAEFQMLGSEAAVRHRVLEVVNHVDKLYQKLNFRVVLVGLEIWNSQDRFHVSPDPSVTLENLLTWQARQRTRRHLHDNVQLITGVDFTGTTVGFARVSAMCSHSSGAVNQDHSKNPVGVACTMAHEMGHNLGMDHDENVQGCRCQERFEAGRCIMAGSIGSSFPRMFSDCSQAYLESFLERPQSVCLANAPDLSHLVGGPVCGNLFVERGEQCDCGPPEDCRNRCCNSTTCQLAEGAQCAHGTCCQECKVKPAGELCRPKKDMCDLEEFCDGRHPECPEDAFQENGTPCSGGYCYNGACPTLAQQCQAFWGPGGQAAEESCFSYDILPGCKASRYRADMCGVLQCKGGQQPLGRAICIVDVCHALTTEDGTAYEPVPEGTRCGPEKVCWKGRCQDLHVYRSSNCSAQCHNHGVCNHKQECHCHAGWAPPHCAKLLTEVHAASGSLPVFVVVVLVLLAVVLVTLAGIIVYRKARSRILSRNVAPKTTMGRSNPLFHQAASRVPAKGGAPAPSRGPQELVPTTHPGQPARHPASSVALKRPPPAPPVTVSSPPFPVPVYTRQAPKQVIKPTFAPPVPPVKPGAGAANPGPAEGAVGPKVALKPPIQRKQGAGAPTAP

[2] = target: T1, Disintegrin and metalloproteinase domain-containing protein 8 (Homo sapiens); assay: Inhibition of ADAM8 in human MDA-MB-231 cells assessed as inhibition of Akt phosphorylation at Ser473 residue at 10 uM incubated for 48 hrs by western blot analysis; format: cell-based

Row | inhibition [1] | inhibition [2] | SMILES
1 | inactive | inactive | O=C(NCCC[C@@H](NS(=O)(=O)c1ccc(OCc2cc(Br)cc(Br)c2)cc1)C(=O)NO)NCCC[C@@H](NS(=O)(=O)c1ccc(OCc2cc(Br)cc(Br)c2)cc1)C(=O)NO
2 | inactive | inactive | O=C(NCCC[C@@H](NS(=O)(=O)c1ccc(OCc2cc(Br)cc(Br)c2)cc1)C(=O)NO)c1cccc(C(=O)NCCC[C@@H](NS(=O)(=O)c2ccc(OCc3cc(Br)cc(Br)c3)cc2)C(=O)NO)c1
3 | inactive | inactive | O=C(CCCNC(=O)c1cccc(C(=O)NCCCC(=O)NCCC[C@@H](NS(=O)(=O)c2ccc(OCc3cc(Br)cc(Br)c3)cc2)C(=O)NO)c1)NCCC[C@@H](NS(=O)(=O)c1ccc(OCc2cc(Br)cc(Br)c2)cc1)C(=O)NO
